Earlier results as cited in US20040115181A1, “Composition for transmucosal adminstration containing conenzyme q as the active ingredient” (priority 2001, published 2004).

Test system: rats
Conditions: continuously administered for 52 weeks, 1.2 g/kg/day, J. Agric. Food Chem., 1999, Vol. 47, P3756-3763

## COC1=C(OC)C(=O)C(C/C=C(\C)CC/C=C(\C)CC/C=C(\C)CC/C=C(\C)CC/C=C(\C)CC/C=C(\C)CC/C=C(\C)CC/C=C(\C)CC/C=C(\C)CCC=C(C)C)=C(C)C1=O [coenzyme Q10]
  Toxicity in safety test: no toxicity is observed
